What was measured:
HCC827 cells = test: Cell viability assay (CCK-8), HCC827; format: cell-based; details: HCC827, 48 h; for IC50: Homo sapiens, read-out: Antiproliferation activity (pIC50 ± SEM) HCC827 (converted)
Method: (§1) Various cancer cell lines, including human colon cancer cell line HT-29, ovarian cell line OVCAR-3, melanoma cell line B16-F10, skin squamous cancer cells A431, cervical cancer cells Hela, lung cancer cell lines A549, H1975, and HCC827, were purchased from American type culture collection (ATCC). A431, H1975, B16-F10, OVCAR-3, HT-29, HCC827, Hela, and A549 cells were cultured in Dulbecco’s modified Eagle medium (DMEM, Gibco) containing 10% fetal bovine serum (FBS, Gibco), penicillin (100 U/ml) and streptomycin (100 μg/ml). All cell lines were maintained in a humidified 37°C incubator with 5% CO2. The medium was refreshed every 2–3 days and the cells were passaged at ∼90% confluence by adding the fresh medium, followed by vigorously pipetting the resuspend cells. Of note, the cells were only washed with PBS when a significant number of dead cells were observed.
(§2) The antiproliferation activity of the compounds against the cancer cell lines was evaluated using Cell Counting Kit-8. Briefly, cells (∼1,000 per well) in 100 µl of culture medium were plated in a 96-well plate for 24 h and 100 µl of medium with different concentrations of the tested compounds was added to each well for 48 h. Then 10 μl of CCK8 solution (#CK04, Dojindo) was added and incubated at 37°C for 2 h. The absorbance of each well was measured with a plate reader (BioTeck) at 450 nm. Cell viability was calculated as follows: cell viability (%) = [(As-Ab)/(Ac-Ab)] × 100. Among them, As represents the absorbance of experimental wells, Ab represents the absorbance of blank wells and Ac represents the absorbance of control wells. The experiments were repeated at least three times and IC50 values were determined by plotting a log(inhibitor) v. s normalized response (Variable slope) dose–response curve generated using GraphPad Prism software.

B16-F10 cells = test: Cell viability assay (CCK-8), B16-F10; format: cell-based; details: for IC50: Mus musculus, read-out: Antiproliferation activity (pIC50 ± SEM) B16-F10 (converted)
Method: as §1, §2

human ABHD6 = target: T1, human ABHD6 (Homo sapiens, UniProt Q9BV23); test: ABHD6 activity assay (AA-HNA fluorogenic substrate); format: biochemical
T1 construct: expressed in transfected cells; host or cells: HEK293T (transient transfection; membrane fraction)
T1 sequence (Q9BV23 1-337): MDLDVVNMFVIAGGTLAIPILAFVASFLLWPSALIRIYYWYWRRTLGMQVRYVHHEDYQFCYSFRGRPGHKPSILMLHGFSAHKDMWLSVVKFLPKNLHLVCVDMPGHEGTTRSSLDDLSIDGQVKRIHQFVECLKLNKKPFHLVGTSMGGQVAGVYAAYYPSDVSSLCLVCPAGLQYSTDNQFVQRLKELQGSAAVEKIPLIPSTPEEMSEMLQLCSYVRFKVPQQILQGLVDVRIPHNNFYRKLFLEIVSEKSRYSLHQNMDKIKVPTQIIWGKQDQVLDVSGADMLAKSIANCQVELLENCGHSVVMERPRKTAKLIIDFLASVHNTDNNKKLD
Outline: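 Membranes from HEK293T cells transiently overexpressing human ABHD6 (50 μg/ml final) were preincubated 30 min with inhibitor in 40 mM HEPES pH 7.5, 0.1 mg/ml BSA, 5% DMSO. Hydrolysis of 200 µM AA-HNA was followed by fluorescence for 30 min, activity taken as the 5–15 min slope.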

Hela cells = test: Cell viability assay (CCK-8), Hela; format: cell-based; details: 48 h; for IC50: Homo sapiens, read-out: Antiproliferation activity (pIC50 ± SEM) Hela (converted)
Method: as §1, §2

[1] = 100 µM, AA-HNA substrate assay, Supplementary Table 2, read-out: ABHD6 Inhibition (%)

Structure (SMILES)	IC50 (HCC827 cells) [µM]	inhibition of cell viability of B16-F10 (B16-F10 cells; 20 µM, 48 h) [%]	IC50 (B16-F10 cells; B16-F10, 48 h, CCK-8) [µM]	activity at 100 µM (human ABHD6; [1]) [%]	IC50 (Hela cells) [µM]	Antiproliferation activity (pIC50 ± SEM) HCC827 (HCC827 cells)	Antiproliferation activity (pIC50 ± SEM) B16-F10 (B16-F10 cells; B16-F10, 48 h, CCK-8)	activity (human ABHD6; [1]) [%]	Antiproliferation activity (pIC50 ± SEM) Hela (Hela cells)	inhibition at 100 µM (human ABHD6; recombinant human ABHD6, 100 µM compound) [%]	ABHD6 inhibition (%) (human ABHD6; recombinant human ABHD6, 100 µM compound, 100 µM)
O=c1cc(-c2ccc(O)cc2)oc2cc(O)cc(O)c12 [compound 9, Apigenin]	> 10	54	> 10	88.9	> 10	–	–	–	–	–	–
COc1ccc2cc3[n+](cc2c1OC)CCc1cc2c(cc1-3)OCO2 [compound 17, Berberine chloride]	> 10	–	> 10	112	> 10	–	–	–	–	–	–
COc1ccc(C(C)=O)c(O)c1 [compound 64, Paeonol]	> 10	–	> 10	96.2	> 10	–	–	–	–	–	–
Cl.N=c1ccn2c(n1)O[C@H]1[C@H](O)[C@@H](CO)O[C@H]12 [compound 1, Cyclocytidine HCl]	–	–	–	–	–	5.1 ± 0.2	5.7 ± 0.2	89.8	5.0 ± 0.2	–	–
C[C@H]1COC2=C1C(=O)C(=O)c1c2ccc2c1CCCC2(C)C [compound 23, Cryptotanshinone]	6.31	–	7.94	62.5	7.94	–	–	–	–	< 50	37

Source: paper PMC9465256, “Discovering monoacylglycerol lipase inhibitors by a combination of fluorogenic substrate assay and activity-based protein profiling” (Frontiers in Pharmacology, 2022)
